Data on 29 substances can be found in the OligoGym collection.

Values joined by “and” are separate entries in the source; they are usually repeats but may differ in a detail not shown here. Identical values can stand only once. After the bases stand the sugars from the 5' end (letter, count) and the backbone: PS all phosphorothioate, else s phosphorothioate and o phosphodiester by linkage. HELM strings list units from the 5' end as sugar, base in round brackets, then linkage (d deoxyribose, r ribose, m 2'-O-methyl, p phosphodiester). Methylation of C is not given here. [moe] = 2'-O-(2-methoxyethyl) (MOE); [cEt] = constrained ethyl (cEt); [sp] = phosphorothioate linkage; k = constrained ethyl (cEt); d = 2'-deoxy (DNA)

Data set [1] deals with KRAS. Conditions: ASO.
The target in data set [2] is HBV. The following applies: ASO.

As to TCTTGTTGAGCTATCC (sugars k3 d10 k3, PS), the target mRNA inhibition was 28% and 3% in data set [1] (A431, 0.185 µM); 38% and 29% in data set [1] (A431, 0.556 µM); 61% and 40% in data set [1] (A431, 1.667 µM); 56% in data set [1] (A431, 2 µM); 82% and 64% in data set [1] (A431, 5 µM). Turning to “RNA1{[moe](G)[sp].[moe](C)[sp].d(A)[sp].d(G)[sp].d(T)[sp].d(A)[sp].d(T)[sp].d(G)[sp].d(G)[sp].d(A)[sp].d(T)[sp].[moe](C)[sp].[moe](G)[sp].[moe](G)[sp].[moe](C)[sp].[moe](A)}$$$$V2.0”, the target mRNA inhibition in data set [2] (HepG2, 0.0092593 µM) is 2%; in data set [2] (HepG2, 0.0277778 µM) it was 25%; in data set [2] (HepG2, 0.07 µM) it was 76% and 73%; in data set [2] (HepG2, 0.0833333 µM), 44%; in data set [2] (HepG2, 0.25 µM) it was 77%. “RNA1{[moe](A)[sp].[moe](G)[sp].[moe](G)[sp].[moe](C)[sp].[moe](A)[sp].[moe](T)[sp].d(A)[sp].d(G)[sp].d(C)[sp].d(A)[sp].d(G)[sp].d(C)[sp].d(A)[sp].d(G)[sp].d(G)[sp].[moe](A)[sp].[moe](T)}$$$$V2.0”: in data set [2] (HepG2, 0.07 µM), the target mRNA inhibition was 71% and 50%. With “RNA1{[moe](C)[sp].[moe](G)[sp].[moe](A)[sp].[moe](A)[sp].d(C)[sp].d(C)[sp].d(A)[sp].d(C)[sp].d(T)[sp].d(G)[sp].d(A)[sp].d(A)[sp].d(C)[sp].[moe](A)[sp].[moe](A)[sp].[moe](A)[sp].[moe](T)}$$$$V2.0”, the target mRNA inhibition in data set [2] (HepG2, 0.07 µM) was 48% and 41%. Regarding “RNA1{[moe](C)[sp].[cEt](G)[sp].d(T)[sp].d(G)[sp].d(C)[sp].d(A)[sp].d(G)[sp].d(A)[sp].d(G)[sp].d(G)[sp].d(T)[sp].d(G)[sp].[cEt](A)[sp].[moe](A)[sp].[cEt](G)[sp].[moe](C)}$$$$V2.0”, the target mRNA inhibition in data set [2] (HepG2, 0.07 µM) was 76% and 79%. In the case of “RNA1{[moe](C)[sp].[cEt](A)[sp].[cEt](C)[sp].d(G)[sp].d(A)[sp].d(G)[sp].d(T)[sp].d(C)[sp].d(T)[sp].d(A)[sp].d(G)[sp].d(A)[sp].d(C)[sp].[cEt](T)[sp].[cEt](C)[sp].[moe](T)}$$$$V2.0”, the target mRNA inhibition in data set [2] (HepG2, 0.07 µM) was 44% and 38%. For the substance “RNA1{[moe](G)[sp].[moe](A)[sp].[moe](G)[sp].d(T)[sp].d(T)[sp].d(C)[sp].d(C)[sp].d(G)[sp].d(C)[sp].d(A)[sp].d(G)[sp].d(T)[sp].[moe](A)[sp].[moe](T)[sp].[moe](G)[sp].[moe](G)}$$$$V2.0”, the target mRNA inhibition in data set [2] (HepG2, 0.07 µM) is 54% and 30%. With “RNA1{[moe](G)[sp].[cEt](A)[sp].[cEt](A)[sp].d(C)[sp].d(C)[sp].d(A)[sp].d(C)[sp].d(T)[sp].d(G)[sp].d(A)[sp].d(A)[sp].d(C)[sp].d(A)[sp].[cEt](A)[sp].[cEt](A)[sp].[moe](T)}$$$$V2.0”, the target mRNA inhibition in data set [2] (HepG2, 0.07 µM) is 65% and 53%. With “RNA1{[moe](A)[sp].[moe](A)[sp].[moe](C)[sp].[moe](T)[sp].[moe](G)[sp].d(G)[sp].d(A)[sp].d(G)[sp].d(C)[sp].d(C)[sp].d(A)[sp].d(C)[sp].d(C)[sp].d(A)[sp].[moe](G)[sp].[moe](C)}$$$$V2.0”, the target mRNA inhibition in data set [2] (HepG2, 0.07 µM) is 50% and 39%. Regarding “RNA1{[moe](A)[sp].[cEt](G)[sp].[cEt](G)[sp].d(A)[sp].d(G)[sp].d(T)[sp].d(T)[sp].d(C)[sp].d(C)[sp].d(G)[sp].d(C)[sp].d(A)[sp].d(G)[sp].[cEt](T)[sp].[cEt](A)[sp].[moe](T)}$$$$V2.0”, the target mRNA inhibition in data set [2] (HepG2, 0.0092593 µM) is 4%; in data set [2] (HepG2, 0.0277778 µM), 35%; in data set [2] (HepG2, 0.07 µM), 89% and 79%; in data set [2] (HepG2, 0.0833333 µM) it was 70%; in data set [2] (HepG2, 0.25 µM) it was 87%.

Turning to “RNA1{[moe](G)[sp].[moe](T)[sp].[moe](G)[sp].[moe](C)[sp].d(A)[sp].d(G)[sp].d(A)[sp].d(G)[sp].d(G)[sp].d(T)[sp].d(G)[sp].d(A)[sp].d(A)[sp].[moe](G)[sp].[moe](C)[sp].[moe](G)}$$$$V2.0”, the target mRNA inhibition in data set [2] (HepG2, 0.07 µM) is 64% and 63%. On the same count and under the same terms, with “RNA1{[moe](G)[sp].[moe](C)[sp].[moe](A)[sp].d(G)[sp].d(A)[sp].d(G)[sp].d(G)[sp].d(T)[sp].d(G)[sp].d(A)[sp].d(A)[sp].d(G)[sp].d(C)[sp].[cEt](G)[sp].[cEt](A)[sp].[cEt](A)}$$$$V2.0” the figure was 71% and 50%; with “RNA1{[moe](C)[sp].[moe](T)[sp].[moe](G)[sp].[moe](G)[sp].[moe](A)[sp].[moe](G)[sp].d(C)[sp].d(C)[sp].d(A)[sp].d(C)[sp].d(C)[sp].d(A)[sp].d(G)[sp].d(C)[sp].d(A)[sp].[moe](G)[sp].[moe](G)}$$$$V2.0”, 54% and 50%. For the substance “RNA1{[moe](G)[sp].[moe](C)[sp].d(A)[sp].d(G)[sp].d(A)[sp].d(G)[sp].d(G)[sp].d(T)[sp].d(G)[sp].d(A)[sp].d(A)[sp].[moe](G)[sp].[moe](C)[sp].[moe](G)[sp].[moe](A)[sp].[moe](A)}$$$$V2.0”, in data set [2] (HepG2, 0.07 µM), the target mRNA inhibition is 58% and 57%. The same measure, in the same setting: with “RNA1{[moe](G)[sp].[moe](A)[sp].[moe](A)[sp].[moe](C)[sp].d(C)[sp].d(A)[sp].d(C)[sp].d(T)[sp].d(G)[sp].d(A)[sp].d(A)[sp].d(C)[sp].d(A)[sp].[moe](A)[sp].[moe](A)[sp].[moe](T)}$$$$V2.0” the figure was 34% and 23%.

For “RNA1{[moe](A)[sp].[moe](A)[sp].d(T)[sp].d(T)[sp].d(T)[sp].d(A)[sp].d(T)[sp].d(G)[sp].d(C)[sp].d(C)[sp].d(T)[sp].[moe](A)[sp].[moe](C)[sp].[moe](A)[sp].[moe](G)[sp].[moe](C)[sp].[moe](C)}$$$$V2.0”, the target mRNA inhibition in data set [2] (HepG2, 0.07 µM) was 52% and 48%.

For the substance “RNA1{[moe](A)[sp].[moe](C)[sp].d(G)[sp].d(T)[sp].d(G)[sp].d(C)[sp].d(A)[sp].d(G)[sp].d(A)[sp].d(G)[sp].d(G)[sp].[moe](T)[sp].[moe](G)[sp].[moe](A)[sp].[moe](A)[sp].[moe](G)[sp].[moe](C)}$$$$V2.0”, the target mRNA inhibition in data set [2] (HepG2, 0.0092593 µM) amounted to 20%; in data set [2] (HepG2, 0.0277778 µM) it was 25%; in data set [2] (HepG2, 0.07 µM) it was 78%; in data set [2] (HepG2, 0.0833333 µM), 69%; in data set [2] (HepG2, 0.25 µM), 89%. Take “RNA1{[moe](T)[sp].[moe](G)[sp].[moe](A)[sp].[moe](A)[sp].d(G)[sp].d(C)[sp].d(G)[sp].d(A)[sp].d(A)[sp].d(G)[sp].d(T)[sp].d(G)[sp].d(C)[sp].[moe](A)[sp].[moe](C)[sp].[moe](A)}$$$$V2.0”: in data set [2] (HepG2, 0.07 µM), the target mRNA inhibition was 43% and 52%. As for “RNA1{[moe](C)[sp].[moe](G)[sp].[moe](C)[sp].d(A)[sp].d(G)[sp].d(T)[sp].d(A)[sp].d(T)[sp].d(G)[sp].d(G)[sp].d(A)[sp].d(T)[sp].[moe](C)[sp].[moe](G)[sp].[moe](G)[sp].[moe](C)[sp].[moe](A)}$$$$V2.0”, the target mRNA inhibition in data set [2] (HepG2, 0.0092593 µM) was 7%; in data set [2] (HepG2, 0.0277778 µM), 38%; in data set [2] (HepG2, 0.07 µM), 85% and 80%; in data set [2] (HepG2, 0.0833333 µM), 78%; in data set [2] (HepG2, 0.25 µM) it was 89%. Consider “RNA1{[moe](C)[sp].[moe](G)[sp].[moe](G)[sp].d(G)[sp].d(C)[sp].d(A)[sp].d(A)[sp].d(C)[sp].d(A)[sp].d(T)[sp].d(A)[sp].d(C)[sp].[moe](C)[sp].[moe](T)[sp].[moe](T)[sp].[moe](G)}$$$$V2.0”, for which the target mRNA inhibition in data set [2] (HepG2, 0.07 µM) is 56% and 45%. The same measure, in the same setting: with “RNA1{[moe](G)[sp].[moe](A)[sp].[moe](G)[sp].[moe](A)[sp].d(A)[sp].d(G)[sp].d(T)[sp].d(C)[sp].d(C)[sp].d(A)[sp].d(C)[sp].d(C)[sp].d(A)[sp].[moe](C)[sp].[moe](G)[sp].[moe](A)[sp].[moe](G)}$$$$V2.0” the figure was 42% and 29%; with “RNA1{[moe](A)[sp].[moe](T)[sp].[moe](G)[sp].d(A)[sp].d(G)[sp].d(G)[sp].d(C)[sp].d(A)[sp].d(T)[sp].d(A)[sp].d(G)[sp].d(C)[sp].d(A)[sp].[cEt](G)[sp].[cEt](C)[sp].[cEt](A)}$$$$V2.0”, 71% and 73%; with “RNA1{[moe](A)[sp].[cEt](C)[sp].d(C)[sp].d(A)[sp].d(A)[sp].d(T)[sp].d(T)[sp].d(T)[sp].d(A)[sp].d(T)[sp].d(G)[sp].d(C)[sp].[cEt](C)[sp].[moe](T)[sp].[cEt](A)[sp].[moe](C)}$$$$V2.0”, 40% and 51%.

As to “RNA1{[moe](G)[sp].[moe](A)[sp].[moe](A)[sp].[moe](C)[sp].[moe](C)[sp].d(A)[sp].d(C)[sp].d(T)[sp].d(G)[sp].d(A)[sp].d(A)[sp].d(C)[sp].d(A)[sp].d(A)[sp].[moe](A)[sp].[moe](T)}$$$$V2.0”, the target mRNA inhibition in data set [2] (HepG2, 0.07 µM) was 34% and 36%. As to “RNA1{[moe](A)[sp].[moe](C)[sp].[moe](C)[sp].[moe](A)[sp].[moe](C)[sp].d(T)[sp].d(G)[sp].d(A)[sp].d(A)[sp].d(C)[sp].d(A)[sp].d(A)[sp].d(A)[sp].d(T)[sp].[moe](G)[sp].[moe](G)}$$$$V2.0”, the target mRNA inhibition in data set [2] (HepG2, 0.07 µM) was 60% and 52%. Regarding “RNA1{[moe](A)[sp].[moe](A)[sp].[moe](C)[sp].[moe](C)[sp].d(A)[sp].d(C)[sp].d(T)[sp].d(G)[sp].d(A)[sp].d(A)[sp].d(C)[sp].d(A)[sp].d(A)[sp].[moe](A)[sp].[moe](T)[sp].[moe](G)}$$$$V2.0”, in data set [2] (HepG2, 0.07 µM), the target mRNA inhibition was 52% and 54%. On the same count and under the same terms, with “RNA1{[moe](G)[sp].[moe](A)[sp].[moe](G)[sp].d(G)[sp].d(C)[sp].d(A)[sp].d(T)[sp].d(A)[sp].d(G)[sp].d(C)[sp].d(A)[sp].d(G)[sp].[moe](C)[sp].[moe](A)[sp].[moe](G)[sp].[moe](G)}$$$$V2.0” the figure was 58% and 57%; with “RNA1{[moe](C)[sp].[moe](G)[sp].[moe](T)[sp].d(G)[sp].d(C)[sp].d(A)[sp].d(G)[sp].d(A)[sp].d(G)[sp].d(G)[sp].d(T)[sp].d(G)[sp].[moe](A)[sp].[moe](A)[sp].[moe](G)[sp].[moe](C)}$$$$V2.0”, 62% and 42%. Same read-out and setting: the value for “RNA1{[moe](G)[sp].[moe](A)[sp].[moe](G)[sp].[moe](A)[sp].[moe](A)[sp].[moe](G)[sp].d(T)[sp].d(C)[sp].d(C)[sp].d(A)[sp].d(C)[sp].d(C)[sp].d(A)[sp].d(C)[sp].d(G)[sp].[moe](A)[sp].[moe](G)}$$$$V2.0” was 27% and 23%.
